Test results: publication PMC8625052, “The Antiarrhythmic Activity of Novel Pyrrolidin-2-one Derivative S-75 in Adrenaline-Induced Arrhythmia” (Pharmaceuticals, 2021)
Entries after “also recorded” stand apart in the source; their conditions may differ. Marks after values point to notes of the source that are not given here.

Legend:
[1] = system: post-reperfusion arrhythmia of isolated rat heart; assay: Antiarrhythmic activity in the post-reperfusion model in isolated rat heart; conditions: for Extrasystoles (%) / Fibrillations (%) / Tachycardia (%) / Arrhythmia Severity Index: reperfusion; for Extrasystoles (%) / Fibrillations (%) / Tachycardia (%): % occurrence; for Arrhythmia Severity Index: Bernauer scale
Method: Hearts form Wistar rats were isolated and immersed in Chenoweth–Koelle solution (120 mM NaCl; 5 mM KCl; 2.2 mM MgCl2; […]; 2.4 mM CaCl2; 10 mM glucose). Hearts were perfused according to the Langendorff model under a constant pressure of 70 cm H2O (6.87 kPa) with a solution at 37 °C, pH 7.4, constantly oxygenated (O2/CO2, 19:1) using the MyoHEART Langendorff System-900MH (Danish Myo Technology, Hinnerup, Denmark), which monitored the ECG. After 20 min stabilization period, acute myocardial ischemia was induced locally by installing a clamp on the left coronary artery (ischemic period). After 15 min, the clamp was removed, and ECG changes were monitored for 30 min (reperfusion period). The tested compound was added to the perfusion solution 15 min before coronary artery clamping. The point scale described by Bernauer was used to assess the antiarrhythmic activity in this arrhythmia model. The occurrence of a specific type of heart rhythm disturbance during the reperfusion period was scored according to the following scale: • occurrence of less than 10 extrasystoles—1 point; • occurrence of more than 10 extrasystoles—2 points; • presence of ventricular tachycardia—3 points; • presence of fibrillation—4 points.

[2] = system: adrenaline-induced arrhythmia in rats; assay: Therapeutic antiarrhythmic activity in adrenaline-induced arrhythmia; format: in vivo, rat
Method: The experiments were carried out according to the method described by Szekeres and Papp. The heart rhythm disturbances were evoked by intravenous administration of adrenaline (20 µg/kg) to anesthetized rats (thiopental, 75 mg/kg). The tested compound was administered iv immediately after the injection of adrenaline, at dose 5 mg/kg. The ECG was recorded during the first 2 min and in the 5th, 10th, and 15th min after the adrenaline injection. […] The criterion of antiarrhythmic activity was the decrease or complete absence of extrasystoles, atrioventricular blocks and bradycardia in the ECG recording in comparison with the control group.

[3] = system: adrenaline-induced arrhythmia in rats; assay: Prophylactic antiarrhythmic activity in adrenaline-induced arrhythmia; format: in vivo, rat; conditions: for ED50: Rattus norvegicus, prophylactic, iv 15 min before adrenaline 20 μg/kg, Litchfield and Wilcoxon, limits in brackets, read-out: ED50 (a dose producing a 50% inhibition of ventricular contractions); for Blocks (%) / Bradycardia (%) / Extrasystoles (%) / Mortality (%): adrenaline 20 μg/kg iv, % occurrence
[4] = molecular target: Ca2+ channel (L, verapamil site); assay: Radioligand binding assay for Ca2+ channel ([3H]-D888); design: species or system rat; conditions: for IC50: rat cortex tissue, [3H]-D888
Method: The radioligand binding studies for K^+ and Ca^2+ channels were performed commercially by Eurofins Cerep (Celle l’Evescault, France) using testing procedures described elsewhere. […]

[5] = system: aconitine-induced arrhythmia in rats; assay: Prophylactic antiarrhythmic activity in aconitine-induced arrhythmia; format: in vivo, rat
[6] = molecular target: α1 receptors; design: method as in PMID 25813897; conditions: cited from earlier work
[7] = system: blood pressure in normotensive rats; design: method as in PMID 25813897; conditions: doses 5, 1, and 0.5 mg/kg; cited from earlier work
[8] = system: calcium chloride-induced arrhythmia in rats; assay: Prophylactic antiarrhythmic activity in calcium chloride-induced arrhythmia; format: in vivo, rat
[9] = molecular target: T1, β1-adrenergic receptors (Rattus norvegicus, UniProt P18090); assay: Radioligand binding assay for β1-adrenergic receptors ([3H]-CGP-12177); conditions: rat cortex tissue
T1 construct: from tissue; host or cells: rat cortex
Method: Radioligand binding assay was performed on tissue rat cortex. […] In order to measure the unspecific binding 1 μM of propranolol was applied. Microplate was covered with a sealing tape, mixed and incubated for 60 minutes at 37 °C. The incubation was terminated by rapid filtration through GF/B filter mate. Ten rapid washes with 200 µL 50 mM Tris buffer (4 °C, pH 7.6) were completed using 96-well FilterMate harvester (PerkinElmer, Boston, MA, USA). The filter mates were dried at 37 °C in forced air fan incubator and then solid scintillator MeltiLex was melted on filter mates at 90 °C for 4 min. […] Data were fitted to a one-site curve-fitting equation with Prism 6 (GraphPad Software, San Diego, CA, USA) and Ki values were estimated from the Cheng−Prusoff equation [51].

[10] = system: normal ECG in rats; assay: Effect on normal electrocardiogram in rats; format: in vivo, rat; design: PQ / QRS / QTc / QT / Rate (heart rate): unit not given here; conditions: 5 mg/kg iv; for QTc: Bazzett's formula
Method: To eliminate the influence of the tested derivative on normal electrocardiogram (ECG), the experiment was performed. ECG tests were carried out with Aspel ASCARD apparatus (standard II lead, with the tape speed 50 mm/s and voltage calibration 1 Mv = 1 cm). The ECG was recorded prior and 5, 10, 15 min after iv administration of tested compound. The influence on PQ, QT, QTc interval, QRS complex and heart rate (RR) was defined. The Bazzett’s formula: QTc = QT/√RR was used to calculate QTc.

[11] = molecular target: α1B receptor; design: method as in PMID 25813897; conditions: antagonist; cited from earlier work
[12] = molecular target: α1A receptor; design: method as in PMID 25813897; conditions: antagonist; cited from earlier work
[13] = molecular target: α2 receptors; design: method as in PMID 25813897; conditions: cited from earlier work
[14] = molecular target: T2, potassium hERG channel (Homo sapiens, UniProt Q12809); assay: Radioligand binding assay for K+ channel hERG ([3H]-dofetilide, HEK-293 cells)
T2 construct: host or cells: HEK-293
Method: The radioligand binding studies for K^+ and Ca^2+ channels were performed commercially by Eurofins Cerep (Celle l’Evescault, France) using testing procedures described elsewhere [68, 69].

[15] = system: isolated rat heart; assay: Effect on normal ECG of isolated rat heart (Langendorff)
Method: Hearts form Wistar rats were isolated and immersed in Chenoweth-Koelle solution (120 mM NaCl; 5 mM KCl; 2.2 mM MgCl2; […]; 2.4 mM CaCl2; 10 mM glucose). Hearts were perfused according to the Langendorff model under a constant pressure of 70 cm H2O (6.87 kPa) with a solution at 37 °C, pH 7.4, constantly oxygenated (O2/CO2, 19:1) using the MyoHEART Langendorff System-900MH (Danish Myo Technology, Hinnerup, Denmark), which simultaneously monitored the ECG. After 20-min stabilization period, the tested compound was administered directly to the nutrient fluid every 15 min at increasing concentrations of […]. The influence on PQ, QTc interval, QRS complex and heart rate (RR) was assessed. The Bazzett’s formula: QTc = QT/√RR was used to calculate QTc.

[16] = system: isolated ischemic rat hearts; design: method as in PMID 9228191; conditions: cited from earlier work
[17] = system: arrhythmia caused by cardiac ischemia in dogs; design: method as in PMID 7528295; conditions: dogs after myocardial infarction; cited from earlier work
[18] = 5 mg/kg iv immediately after adrenaline, % occurrence
[19] = dose 0.25 mg/kg iv 15 min before
[20] = calcium chloride 140 mg/kg iv, dose 5 mg/kg iv 15 min before, % occurrence
[21] = aconitine 20 μg/kg iv, dose 5 mg/kg iv 15 min before, % occurrence
[22] = 0 min (prior to administration)
[23] = dose 0.03 mg/kg iv 15 min before
[24] = dose 0.06 mg/kg iv 15 min before
[25] = dose 0.125 mg/kg iv 15 min before
[26] = dose 0.5 mg/kg iv 15 min before

T2 sequence (Q12809 whole entry): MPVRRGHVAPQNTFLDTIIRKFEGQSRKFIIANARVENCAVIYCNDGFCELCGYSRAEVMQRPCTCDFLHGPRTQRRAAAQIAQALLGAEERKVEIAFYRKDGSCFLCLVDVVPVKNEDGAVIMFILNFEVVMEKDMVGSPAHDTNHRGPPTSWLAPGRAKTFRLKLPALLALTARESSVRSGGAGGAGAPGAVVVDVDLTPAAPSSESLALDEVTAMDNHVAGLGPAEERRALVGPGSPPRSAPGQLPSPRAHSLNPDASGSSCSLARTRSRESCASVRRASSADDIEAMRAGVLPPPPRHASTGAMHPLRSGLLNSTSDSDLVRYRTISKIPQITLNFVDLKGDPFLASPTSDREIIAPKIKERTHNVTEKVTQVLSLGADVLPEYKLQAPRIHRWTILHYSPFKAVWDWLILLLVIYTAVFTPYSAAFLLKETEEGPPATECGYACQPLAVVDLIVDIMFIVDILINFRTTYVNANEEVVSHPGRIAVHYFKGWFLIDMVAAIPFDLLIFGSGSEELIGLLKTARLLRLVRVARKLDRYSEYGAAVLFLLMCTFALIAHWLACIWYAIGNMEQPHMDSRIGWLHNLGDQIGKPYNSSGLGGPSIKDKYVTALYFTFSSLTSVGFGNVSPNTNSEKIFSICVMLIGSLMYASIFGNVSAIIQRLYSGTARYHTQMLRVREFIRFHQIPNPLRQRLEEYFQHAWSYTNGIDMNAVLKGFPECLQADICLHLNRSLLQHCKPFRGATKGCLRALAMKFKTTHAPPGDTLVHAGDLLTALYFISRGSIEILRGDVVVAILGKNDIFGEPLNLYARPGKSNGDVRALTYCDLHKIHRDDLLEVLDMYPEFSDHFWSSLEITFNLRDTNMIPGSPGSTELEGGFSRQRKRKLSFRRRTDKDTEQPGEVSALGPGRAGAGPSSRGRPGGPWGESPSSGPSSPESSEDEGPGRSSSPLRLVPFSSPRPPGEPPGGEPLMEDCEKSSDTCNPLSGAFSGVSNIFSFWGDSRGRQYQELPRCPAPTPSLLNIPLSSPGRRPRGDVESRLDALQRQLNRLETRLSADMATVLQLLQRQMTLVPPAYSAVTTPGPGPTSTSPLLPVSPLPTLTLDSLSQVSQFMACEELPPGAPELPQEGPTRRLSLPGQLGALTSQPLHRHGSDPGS
T1 sequence (P18090 whole entry): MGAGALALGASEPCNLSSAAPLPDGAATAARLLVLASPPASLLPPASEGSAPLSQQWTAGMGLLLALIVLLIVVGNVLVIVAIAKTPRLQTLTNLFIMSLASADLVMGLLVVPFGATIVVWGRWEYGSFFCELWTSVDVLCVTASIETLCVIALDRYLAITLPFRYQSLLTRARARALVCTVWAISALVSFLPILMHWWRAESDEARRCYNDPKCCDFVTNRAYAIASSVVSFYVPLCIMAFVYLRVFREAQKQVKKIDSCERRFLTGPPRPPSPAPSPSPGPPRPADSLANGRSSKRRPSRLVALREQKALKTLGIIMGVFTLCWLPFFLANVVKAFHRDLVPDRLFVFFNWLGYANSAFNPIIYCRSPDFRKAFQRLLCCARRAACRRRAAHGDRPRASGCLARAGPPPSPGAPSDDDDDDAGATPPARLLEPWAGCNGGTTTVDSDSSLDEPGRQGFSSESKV

SMILES: CCCCc1oc2ccccc2c1C(=O)c1cc(I)c(OCCN(CC)CC)c(I)c1 [Amiodarone]
- Extrasystoles (%) ([1]; concentration 10^−9 M): 100%
- Fibrillations (%) ([1]; concentration 10^−9 M): 66.7%
- Tachycardia (%) ([1]; concentration 10^−9 M): 100%
- Arrhythmia Severity Index ([1]; concentration 10^−9 M): 7.7

SMILES: COc1ccccc1OCCNCC(O)COc1cccc2[nH]c3ccccc3c12 (centres unmarked) [Carvedilol, reference compound]
- decrease of the number of adrenaline-induced extrasystoles ([2]; 5 mg/kg iv immediately after adrenaline 20 µg/kg, compared to the vehicle-treated group): 95.2%
- Blocks (%) [2, 18]: 83.3%
- Mortality (%) [2, 18]: 16.7%
- ED50 [3]: 0.36 mg/kg
- Blocks (%) [3, 19]: 100%
- Bradycardia (%) [3, 19]: 16.6%
- Extrasystoles (%) [3, 19]: 100%
- Mortality (%) [3, 19]: 66.7%

SMILES: COc1ccc(CCN(C)CCCC(C#N)(c2cc(OC)c(OC)c(OC)c2)C(C)C)cc1OC [D-600, reference compound]
- IC50 [4]: 0.037 µM

SMILES: CCCNCC(O)COc1ccccc1C(=O)CCc1ccccc1 (centres unmarked) [Propafenone, reference compound]
- Blocks (%) ([5]; rat, in vivo, 5 mg/kg): 83.3%
- Bradycardia (%) ([5]; rat, in vivo, 5 mg/kg): 100%
- Extrasystoles (%) ([5]; rat, in vivo, 5 mg/kg): 66.7%
- Fibrillations (%) ([5]; rat, in vivo, 5 mg/kg): 33.3%
- Mortality (%) ([5]; rat, in vivo, 5 mg/kg): 16.6%
- Extrasystoles (%) ([1]; concentration 10^−11 M): 100%
- Fibrillations (%) ([1]; concentration 10^−11 M): 33.3%
- Tachycardia (%) ([1]; concentration 10^−11 M): 66.7%
- Arrhythmia Severity Index ([1]; concentration 10^−11 M): 6.7

SMILES: C=C[C@H]1C[N@@]2CC[C@H]1C[C@@H]2[C@@H](O)c1ccnc2ccc(OC)cc12 [Quinidine]
- Extrasystoles (%) ([1]; concentration 10^−6 M): 83.3%
- Fibrillations (%) ([1]; concentration 10^−6 M): 0%
- Tachycardia (%) ([1]; concentration 10^−6 M): 50%
- Arrhythmia Severity Index ([1]; concentration 10^−6 M): 2.3 *

SMILES: Cl.O=C1CCCN1CCCCN1CCN(c2ccccc2Cl)CC1 [S-75, 1-(4-(4-(2-chlorophenyl)piperazin-1-yl)butyl)pyrrolidin-2-one hydrochloride]
- pKi α1 receptors [6]: 7.3
- effect on blood pressure [7]: significantly decreased the blood pressure
- Blocks (%) [8, 20]: 100%
- Bradycardia (%) [8, 20]: 100%
- Extrasystoles (%) [8, 20]: 100%
- Fibrillations (%) [8, 20]: 66.7%
- Mortality (%) [8, 20]: 83.3%
- activity in calcium chloride-induced arrhythmia ([8]; prophylactic, rats): no activity
- β1 (pKi [nM]) [9]: did not bind
- Blocks (%) [5, 21]: 100%
- Bradycardia (%) [5, 21]: 100%
- Extrasystoles (%) [5, 21]: 100%
- Fibrillations (%) [5, 21]: 100%
- Mortality (%) [5, 21]: 100%
- activity in aconitine-induced arrhythmia ([5]; prophylactic, rats): no activity
- influence on QRS [10]: no influence
- influence on QT [10]: no influence
- influence on QTc [10]: no influence; also recorded: did not prolong
- PQ [10, 22]: 46.44 ± 1.352
- QRS [10, 22]: 33.78 ± 1.384
- QT [10, 22]: 81.57 ± 1.356
- Rate (heart rate) [10, 22]: 310.8 ± 17.07
- QTc [10, 22]: 182.9 ± 4.805
- PQ ([10]; 5 min): 47.00 ± 1.537
- QRS ([10]; 5 min): 35.56 ± 1.701
- QT ([10]; 5 min): 81.53 ± 1.812
- Rate (heart rate) ([10]; 5 min): 307.9 ± 18.93
- QTc ([10]; 5 min): 192.3 ± 6.176
- PQ ([10]; 10 min): 49.78 ± 1.042
- QRS ([10]; 10 min): 33.89 ± 1.628
- QT ([10]; 10 min): 82.47 ± 2.186
- Rate (heart rate) ([10]; 10 min): 287.8 ± 22.94
- QTc ([10]; 10 min): 189.3 ± 9.543
- PQ ([10]; 15 min): 52.11 ± 2.061
- QRS ([10]; 15 min): 37.22 ± 1.637
- QT ([10]; 15 min): 83.90 ± 1.730
- Rate (heart rate) ([10]; 15 min): 284.0 ± 23.50
- QTc ([10]; 15 min): 190.9 ± 11.46
- decrease of the heart rate ([10]; after 10 min): 7.4%
- decrease of the heart rate ([10]; after 15 min): 8.6%
- prolongation of the PQ interval ([10]; after 15 min): 12.2%
- EC50 [11]: 2.53 ± 0.5 nM
- activity in the post-reperfusion model of arrhythmia [1]: did not show the activity
- Extrasystoles (%) ([1]; concentration 10^−10 M): 100%
- Fibrillations (%) ([1]; concentration 10^−10 M): 100%
- Tachycardia (%) ([1]; concentration 10^−10 M): 100%
- EC50 [12]: 138 ± 21.9 nM
- IC50 [4]: 0.757 µM
- affinity for L-type calcium channels, times lower than D-600 ([4]; vs reference D-600): 20 times
- pKi α2 receptors [13]: 6.01
- IC50 ([14]; HEK-293 cells, [3H]-dofetilide): 29.3 µM
- affinity toward potassium channel hERG, times lower than terfenadine ([14]; vs terfenadine): 1172 times
- ED50 [3]: 0.05 mg/kg
- Blocks (%) [3, 23]: 100%
- Bradycardia (%) [3, 23]: 100%
- Extrasystoles (%) [3, 23]: 100%
- Mortality (%) [3, 23]: 33.3%
- Blocks (%) [3, 24]: 50%
- Bradycardia (%) [3, 24]: 100%
- Extrasystoles (%) [3, 24]: 83.3%
- Mortality (%) [3, 24]: 0%
- Blocks (%) [3, 25]: 33.3%
- Bradycardia (%) [3, 25]: 33.3%
- Extrasystoles (%) [3, 25]: 66.7%
- Mortality (%) [3, 25]: 50%
- Blocks (%) [3, 19]: 50%
- Bradycardia (%) [3, 19]: 16.7%
- Extrasystoles (%) [3, 19]: 66.7%
- Mortality (%) [3, 19]: 0%
- Blocks (%) [3, 26]: 33.3%
- Bradycardia (%) [3, 26]: 0%
- Extrasystoles (%) [3, 26]: 16.7%
- Mortality (%) [3, 26]: 0%
- prolongation of the PQ interval ([15]; 10^−8 mol/L): 15.1%
- prolongation of the RR interval ([15]; 10^−8 mol/L): 10.5%
- effect on QRS complex ([15]; 10^−10–10^−8 mol/L): not affecting; also recorded: did not affect
- effect on QTc interval ([15]; 10^−10–10^−8 mol/L): not affecting; also recorded: did not affect

SMILES: COc1cccc(OC)c1OCCNCC1COc2ccccc2O1 (centres unmarked) [WB 4101]
- reduction of the incidence of ventricular fibrillation / arrhythmias [16]: 49%

SMILES: Cc1ccc(N(CC2=NCCN2)c2cccc(O)c2)cc1 [phentolamine]
- reduction of the incidence of ventricular fibrillation / arrhythmias [16]: 32%

SMILES: COc1cc2nc(N3CCN(C(=O)c4ccco4)CC3)nc(N)c2cc1OC [prazosin]
- reduction of the incidence of ventricular fibrillation / arrhythmias [16]: 83%
- animals in which arrhythmia caused by cardiac ischemia was prevented [17]: 78%
